Experimental data published in patent publication US11752149B2, “Muscarinic acetylcholine M1 receptor antagonists” (Pipeline Therapeutics, Inc., priority 2019, dated 2023).

Biological target: human M1 receptor (Homo sapiens (Human), UniProt P11229)
Assay: In vitro functional assay of muscarinic acetylcholine receptor activity, aequorin calcium flux, reversal of EC80 acetylcholine
Assay type: cell-based
Details: not given
Description: CHO-K1 cells stably expressing human M1 receptor with aequorin (Perkin Elmer) were grown in F12 media (Gibco) containing 10% FBS (ATCC), 0.4 mg/mL geneticin (Sigma-Aldrich) and 0.25 mg/mL Zeocin (Invitrogen). Cells were grown as per the manufacturer's protocol. For compound testing, cells were grown to confluency and detached gently with Accutase (Sigma-Aldrich) followed by centrifugation for 5 min at 150×g. Cells were then re-suspended in assay buffer (i.e. DMEM/F-12 HEPES without phenol red (Invitrogen) with 0.1% BSA (Sigma-Aldrich)) at a density of 5×10^6 cells/ml. Under sterile conditions, 5 μM coelenterazine (Invitrogen) was added to the cells, mixed, then incubated at room temperature protected from light, with gentle agitation, for 4 h.
Primary compound plates were prepared in 100% DMSO in opaque 96-well plates (VWR) and serially diluted in half log increments. Secondary compound plates were prepared at 3× concentration in assay buffer. Compounds were added to white, clear bottom tissue culture treated 96-well plates (Fisher Scientific). Coelenterazine-loaded cells were then added at 5×10^5 cells/well.
Compounds and cells were incubated at room temperature for 30 min in the dark. Acetylcholine at the EC80 concentration was added and calcium flux measured using a FlexStation 3 (Molecular Devices). Sigmoidal dose-response curves were generated by measuring luminescence over 40 sec and calculating the area under the curve. Dose response curves and IC50 values were generated using Prism (GraphPad). Compounds were tested at a final concentration range of 100 pM to 10 μM in 0.1% DMSO.

Sequence of human M1 receptor (P11229 whole entry): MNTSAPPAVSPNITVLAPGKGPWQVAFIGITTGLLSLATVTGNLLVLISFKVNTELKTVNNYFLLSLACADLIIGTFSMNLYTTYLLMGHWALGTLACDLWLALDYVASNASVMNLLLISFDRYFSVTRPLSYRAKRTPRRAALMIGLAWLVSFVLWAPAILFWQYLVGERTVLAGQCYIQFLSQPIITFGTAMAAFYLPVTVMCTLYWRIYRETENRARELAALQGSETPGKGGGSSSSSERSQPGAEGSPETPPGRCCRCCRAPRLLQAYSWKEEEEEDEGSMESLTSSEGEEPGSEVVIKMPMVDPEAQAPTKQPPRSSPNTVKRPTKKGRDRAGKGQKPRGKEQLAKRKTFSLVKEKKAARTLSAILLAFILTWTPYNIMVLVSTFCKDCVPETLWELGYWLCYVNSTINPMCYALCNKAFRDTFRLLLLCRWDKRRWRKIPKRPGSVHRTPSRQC

Question: How did the IC50 turn out when COc1cccc(S(=O)(=O)CCC(=O)N2CC3CCC(C2)N3c2ccc(F)c(C#N)c2)c1 [Example 19, 2-fluoro-5-{3-[3-(3-methoxybenzenesulfonyl)propanoyl]-3,8-diazabicyclo [3.2.1]octan-8-yl}benzonitrile] was run?
Answer: Its IC50 is 0.1 to 1 µM.

Question: How did the IC50 turn out when COc1c(F)cccc1S(=O)(=O)CCC(=O)N1CC2CCC(C1)N2c1ccc(C#N)cn1 [Example 14, 6-{3-[3-(3-fluoro-2-methoxybenzenesulfonyl)propanoyl]-3,8-diazabicyclo [3.2.1]octan-8-yl}pyridine-3-carbonitrile] was run?
Answer: Its IC50 is 0.01 to 0.1 µM.

Question: How did the IC50 turn out when N#Cc1ccc(N2C3CCC2CN(C(=O)CCS(=O)(=O)c2ccccc2C(F)F)C3)nc1 [Example 26, 6-(3-{3-[2-(difluoromethyl)benzene-sulfonyl]propanoyl}-3,8-diazabicyclo-[3.2.1]octan-8-yl)pyridine-3-carbonitrile] was run?
Answer: Its IC50 is 0.1 to 1 µM.

Question: How did the IC50 turn out when N#Cc1ccc(N2C3CCC2CN(C(=O)CCS(=O)(=O)c2ccnc(C4CC4)c2)C3)nc1 [Example 25, 6-(3-{3-[(2-cyclopropyl-pyridin-4-yl)sulfonyl]propanoyl}-3,8-diazabicyclo [3.2.1]octan-8-yl)pyridine-3-carbonitrile] was run?
Answer: The IC50 was 0.1 to 1 µM.

Question: COc1cccc(S(=O)(=O)CCC(=O)N2CC3CCC(C2)N3c2ccc(C)nn2)c1 [Example 9, 3-(3-methoxybenzenesulfonyl)-1-[8-(6-methylpyridazin-3-yl)-3,8-diazabicyclo[3.2.1]octan-3-yl]propan-1-one] was tested. Which IC50 did it give?
Answer: Its IC50 is 0.1 to 1 µM.

Question: Which IC50 does the source give for COc1cc(F)cc(S(=O)(=O)CCC(=O)N2CC3CCC(C2)N3c2ccc(C#N)cn2)c1 [Example 11, 6-{3-[3-(3-fluoro-5-methoxybenzenesulfonyl)propanoyl]-3,8-diazabicyclo [3.2.1]octan-8-yl}pyridine-3-carbonitrile] here?
Answer: The IC50 was 0.01 to 0.1 µM.

Question: How did the IC50 turn out when N#Cc1ccc(N2C3CCC2CN(C(=O)CCS(=O)(=O)c2cccnc2C2CC2)C3)nc1 [Example 27, 6-(3-{3-[(2-cyclopropylpyridin-3-yl)sulfonyl]propanoyl}-3,8-diazabicyclo[3.2.1]octan-8-yl)pyridine-3-carbonitrile] was run?
Answer: Its IC50 is 0.01 to 0.1 µM.

Question: Which IC50 does the source give for CC(F)(F)c1ccccc1S(=O)(=O)CCC(=O)N1CC2CCC(C1)N2c1ccc(C#N)cn1 [Example 31, 6-(3-(3-((2-(1,1-difluoroethyl)phenyl)sulfonyl)propanoyl)-3,8-diazabicyclo [3.2.1]octan-8-yl)nicotinonitrile] here?
Answer: Its IC50 is 0.1 to 1 µM.

Question: N#Cc1ccc(N2C3CCC2CN(C(=O)CCS(=O)(=O)c2ccccc2[C@@H]2CC2(F)F)C3)nc1 (single isomer, unassigned) [Example 36] was tested. Which IC50 did it give?
Answer: Its IC50 is 0.1 to 1 µM.

Question: For N#Cc1ccc(N2C3CCC2CN(C(=O)CCS(=O)(=O)c2cccc(F)c2)C3)nc1 [Example 7, 6-{3-[3-(3-fluorobenzenesulfonyl)propanoyl]-3,8-diazabicyclo[3.2.1]octan-8-yl}pyridine-3-carbonitrile], which IC50 is on record?
Answer: The IC50 was 0.01 to 0.1 µM.

Question: For COc1cc(S(=O)(=O)CCC(=O)N2CC3CCC(C2)N3c2ccc(C#N)cn2)ccn1 [Example 15, 6-(3-{3-[(2-methoxypyridin-4-yl)sulfonyl]propanoyl}-3,8-diazabicyclo[3.2.1]octan-8-yl)pyridine-3-carbonitrile], which IC50 is on record?
Answer: The IC50 was 0.01 to 0.1 µM.

Question: For N#Cc1ccc(N2C3CCC2CN(C(=O)CCS(=O)(=O)c2ccccc2OC(F)(F)F)C3)nc1 [Example 30, 6-(3-(3-((2-(trifluoromethoxy)phenyl)sulfonyl)propanoyl)-3,8-diazabicyclo-[3.2.1]octan-8-yl)nicotinonitrile], which IC50 is on record?
Answer: The IC50 was 0.1 to 1 µM.

Same assay, conditions: CHO-K1 cells expressing human M1 receptor with aequorin; acetylcholine at EC80; read-out: M1 IC50

Question: Which IC50 does the source give for N#Cc1ccc(N2C3CCC2CN(C(=O)CCCS(=O)(=O)c2ccccc2I)C3)nc1 [Example 1, 6-(3-(4-((2-iodophenyl)sulfonyl)butanoyl)-3,8-diazabicyclo[3.2.1]octan-8-yl)nicotinonitrile] here?
Answer: Its IC50 is < 0.01 µM.

Question: Which IC50 does the source give for COc1cccc(S(=O)(=O)CCC(=O)N2CC3CCC(C2)N3c2ccc(C)cn2)c1 [Example 18, 3-(3-methoxybenzenesulfonyl)-1-[8-(5-methylpyridin-2-yl)-3,8-diazabicyclo[3.2.1]octan-3-yl]propan-1-one] here?
Answer: The IC50 was 1 to 10 µM.
